In ChEMBL document CHEMBL1137928, “Plasmepsin II inhibition and antiplasmodial activity of Primaquine-Statine 'double-drugs'” (Bioorg Med Chem Lett, 2004):

What was measured:
Plasmodium falciparum [1] = assay: Inhibition of Plasmodium falciparum; type: functional, organism-based
Plasmepsin II [2] = biological target: T1, Plasmepsin II (Plasmodium falciparum, UniProt P46925); assay: In vitro concentration required for inhibition of Plasmodium falciparum plasmepsin-2
Plasmodium falciparum [3] = assay: In vitro inhibitory activity against chloroquine-resistant Plasmodium falciparum W-2 infected human erythrocytes; type: functional, organism-based
Plasmodium falciparum [4] = assay: In vitro inhibitory activity against chloroquine-sensitive Plasmodium falciparum D10 infected human red blood cells; type: functional, organism-based
Plasmodium falciparum [5] = assay: In vitro inhibitory activity against chloroquine-sensitive Plasmodium falciparum D-10 infected human red blood cells at 9 uM; type: functional
Plasmodium falciparum [6] = assay: In vitro inhibitory activity against chloroquine-resistant Plasmodium falciparum W2 infected human erythrocytes at 9 uM; type: functional
Plasmepsin II [7] = biological target: T1, Plasmepsin II; assay: In vitro binding affinity towards Plasmodium falciparum plasmepsin-2

T1 sequence (P46925 whole entry): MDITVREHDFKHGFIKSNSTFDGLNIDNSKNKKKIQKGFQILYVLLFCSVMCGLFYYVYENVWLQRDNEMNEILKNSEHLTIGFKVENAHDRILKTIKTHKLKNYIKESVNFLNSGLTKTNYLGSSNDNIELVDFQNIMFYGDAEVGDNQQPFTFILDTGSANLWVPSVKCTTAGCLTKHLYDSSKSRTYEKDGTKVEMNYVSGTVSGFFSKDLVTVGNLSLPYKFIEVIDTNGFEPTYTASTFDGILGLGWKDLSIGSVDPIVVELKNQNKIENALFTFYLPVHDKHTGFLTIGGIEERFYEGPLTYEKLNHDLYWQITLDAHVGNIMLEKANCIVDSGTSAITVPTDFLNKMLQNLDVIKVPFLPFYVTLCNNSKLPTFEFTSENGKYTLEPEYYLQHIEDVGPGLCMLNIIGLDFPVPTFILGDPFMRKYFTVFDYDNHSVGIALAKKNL

Structure (SMILES): COc1cc(NC(C)CCCNC(=O)[C@@H](N)CCCCN)c2ncccc2c1 (stereo partly specified)
- IC50 (Plasmodium falciparum [1]): ~20 µM
- IC50 (Plasmepsin II [2]): > 1 µM

Structure (SMILES): CCCCNC(=O)C[C@H](O)[C@H](CC(C)C)NC(=O)[C@@H](NC(=O)c1ccc2cc(C(=O)OCCCC(=O)N[C@H](CC(C)C)C(=O)N[C@H](CCCCN)C(=O)NCCCC(C)Nc3cc(OC)cc4cccnc34)ccc2c1)[C@H](C)CC (stereo partly specified)
- IC50 (Plasmodium falciparum [3]): 1 µM
- IC50 (Plasmodium falciparum [4]): 3.3 µM
- IC50 (Plasmepsin II [2]): 0.0096 µM

Structure (SMILES): CCCCNC(=O)C[C@H](O)[C@H](CC(C)C)NC(=O)[C@@H](NC(=O)c1ccc2cc(C(=O)N[C@H](CC(C)C)C(=O)N[C@H](CCCCN)C(=O)NCCCC(C)Nc3cc(OC)cc4cccnc34)ccc2c1)[C@H](C)CC (stereo partly specified)
- IC50 (Plasmodium falciparum [3]): 4.7 µM
- IC50 (Plasmodium falciparum [4]): 6.2 µM
- IC50 (Plasmepsin II [2]): 0.00151 µM

Structure (SMILES): CCCCNC(=O)C[C@H](O)[C@H](CC(C)C)NC(=O)[C@@H](NC(=O)c1ccc(Oc2ccc(C(=O)N[C@H](CC(C)C)C(=O)N[C@H](CCCCN)C(=O)NCCCC(C)Nc3cc(OC)cc4cccnc34)cc2)cc1)[C@H](C)CC (stereo partly specified)
- IC50 (Plasmodium falciparum [3]): 0.7 µM
- IC50 (Plasmodium falciparum [4]): 0.4 µM
- IC50 (Plasmepsin II [2]): 0.00059 µM

Structure (SMILES): CCCCNC(=O)C[C@H](O)[C@H](CC(C)C)NC(=O)[C@@H](NC(=O)CCC(=O)N[C@@H](CC(C)C)C(=O)N[C@@H](CCCCN)C(=O)NCCCC(C)Nc1cc(OC)cc2cccnc12)[C@H](C)CC (stereo partly specified)
- inhibition at 9 µM (Plasmodium falciparum [5]): 20%
- inhibition at 9 µM (Plasmodium falciparum [6]): 40%
- IC50 (Plasmepsin II [2]): 0.396 µM

Structure (SMILES): CCCCNC(=O)C[C@H](O)[C@H](CC(C)C)NC(=O)[C@@H](NC(=O)Cc1ccc(CC(=O)N[C@@H](CC(C)C)C(=O)N[C@@H](CCCCN)C(=O)NCCCC(C)Nc2cc(OC)cc3cccnc23)cc1)[C@H](C)CC (stereo partly specified)
- IC50 (Plasmodium falciparum [3]): 4.2 µM
- IC50 (Plasmodium falciparum [4]): 5.5 µM
- IC50 (Plasmepsin II [2]): 0.135 µM

Structure (SMILES): CCCCNC(=O)C[C@H](O)[C@H](CC(C)C)NC(=O)[C@@H](NC(=O)COc1ccc2ccccc2c1)[C@@H](C)CC
- Ki (Plasmepsin II [7]): 0.18 µM

Structure (SMILES): CCCCNC(=O)C[C@H](O)[C@H](Cc1ccccc1)NC(=O)[C@@H](NC(=O)COc1ccc2ccccc2c1)[C@@H](C)CC
- Ki (Plasmepsin II [7]): 0.11 µM

Structure (SMILES): CCCCNC(=O)C[C@H](O)[C@H](CC(C)C)NC(=O)[C@@H](NC(=O)c1ccc(Oc2ccc(C(=O)N[C@@H](CC(C)C)C(=O)O)cc2)cc1)C(C)CC (stereo partly specified)
- IC50 (Plasmodium falciparum [1]): ~17 µM
- IC50 (Plasmepsin II [2]): 0.123 µM
